In patent US11512079B2, “Heterocycle substituted pyridine derivative antifungal agents” (Amplyx Pharmaceuticals, Inc., priority 2017, dated 2022):
≈ marks a conversion by molar mass, not a printed value.

Key:
Format in all cases: cell-based
[1] = test system: Cryptococcus gattii; experiment: In vitro antifungal assay (Example IX), microdilution broth, MIC; conditions: minimum inhibitory concentration (≥50% inhibition), 35° C., 72 h (Cryptococcus), RPMI1640
Procedure, shortened: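 Broth microdilution in RPMI1640 with 2.5×10^3 cells/mL inoculum; final compound concentrations were 2–0.0019 μg/mL, with 1% DMSO. Cryptococcus plates were incubated at 35 °C for 72 h, and growth was read at 600 nm to give the MIC.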

[2] = test system: Candida albicans 90028; experiment: as above; conditions: minimum inhibitory concentration (≥50% inhibition), 35° C., 40-48 h, RPMI1640
Procedure, shortened: (§1)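 CLSI broth microdilution in RPMI1640 with 2.5×10^3 cells/mL and final compound concentrations of 2-0.0019 μg/mL (1% DMSO). C. albicans 90028 plates were incubated at 35° C. for 40-48 h and C. neoformans H99 for 72 h. MIC was read as minimum inhibitory concentration, verified at 600 nm.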

[3] = test system: Cryptococcus neoformans H99; experiment: as above; conditions: minimum inhibitory concentration (≥50% inhibition), 35° C., 72 h, RPMI1640
Procedure, shortened: as §1

[4] = test system: Aspergillus fumigatus MYA3626; experiment: In vitro antifungal assay (Example IX), microdilution broth, MEC; conditions: minimum effective concentration (shortening of hyphae), 35° C., 40-48 h, RPMI1640
Procedure, shortened: (§2)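 Spore suspensions of A. fumigatus and R. pusillus adjusted to 1-2×10^4 spores/mL in RPMI1640 and exposed to compound dilutions prepared in DMSO, by broth microdilution. MEC taken as the lowest concentration shortening hyphae versus DMSO control wells, read as for echinocandins.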

[5] = test system: Rhizomucor pusillus 46342; experiment: as above; conditions: minimum effective concentration (shortening of hyphae), 35° C., 40-48 h, RPMI1640
Procedure, shortened: as §2

| Compound | MIC [1] [µg/mL] | MIC [2] [µg/mL] | MIC [3] [µg/mL] | minimal effective concentration [4] [µg/mL] | minimal effective concentration [5] [µg/mL] |
| --- | --- | --- | --- | --- | --- |
| Nc1ncccc1-c1cc(Cc2ccc(OCc3csc(Cl)n3)nc2)no1 [compound 220, 3-(3-((6-((2-chlorothiazol-4-yl)methoxy)pyridin-3-yl)methyl)isoxazol-5-yl)pyridin-2-amine] | 0.1 to 1 (≈ 0.25 to 2.5 µM) | 0.1 to 1 (≈ 0.25 to 2.5 µM) | 0.1 to 1 (≈ 0.25 to 2.5 µM) | 0.1 to 1 | 0.1 to 1 |
| Nc1ncccc1-c1cc(Cc2ccc(OCc3ccc(Cl)s3)nc2)no1 [compound 221, 3-(3-((6-((5-chlorothiophen-2-yl)methoxy)pyridin-3-yl)methyl)isoxazol-5-yl)pyridin-2-amine] | 0.1 to 1 (≈ 0.251 to 2.51 µM) | 0.1 to 1 (≈ 0.251 to 2.51 µM) | 0.01 to 0.1 (≈ 0.0251 to 0.251 µM) | 0.01 to 0.1 | 0.1 to 1 |
| Nc1ncccc1-c1cc(Cc2ccc(OCc3cccc(Cl)n3)nc2)no1 [compound 222, 3-(3-((6-((6-chloropyridin-2-yl)methoxy)pyridin-3-yl)methyl)isoxazol-5-yl)pyridin-2-amine] | 0.1 to 1 (≈ 0.254 to 2.54 µM) | 0.01 to 0.1 (≈ 0.0254 to 0.254 µM) | 0.01 to 0.1 (≈ 0.0254 to 0.254 µM) | 0.01 to 0.1 | > 1 |
| Nc1ncccc1-c1cc(Cc2ccc(OCc3cccc(Br)n3)nc2)no1 [compound 223, 3-(3-((6-((6-bromopyridin-2-yl)methoxy)pyridin-3-yl)methyl)isoxazol-5-yl)pyridin-2-amine] | 0.1 to 1 (≈ 0.228 to 2.28 µM) | 0.01 to 0.1 (≈ 0.0228 to 0.228 µM) | 0.1 to 1 (≈ 0.228 to 2.28 µM) | 0.01 to 0.1 | > 1 |
| N#CCCOc1ccc(Cc2cc(-c3cccnc3N)on2)cn1 [compound 224, 3-((5-((5-(2-aminopyridin-3-yl)isoxazol-3-yl)methyl)pyridin-2-yl)oxy)propanenitrile] | > 1 | > 1 | > 1 | > 1 | > 1 |
| C#CCCOc1ccc(Cc2cc(-c3cccnc3N)on2)cn1 [compound 225, 3-(3-((6-(but-3-yn-1-yloxy)pyridin-3-yl)methyl)isoxazol-5-yl)pyridin-2-amine] | 0.1 to 1 (≈ 0.312 to 3.12 µM) | 0.1 to 1 (≈ 0.312 to 3.12 µM) | 0.1 to 1 (≈ 0.312 to 3.12 µM) | 0.01 to 0.1 | 0.1 to 1 |
| Nc1ncccc1-c1cc(Cc2ccc(OCc3cccc(F)n3)nc2)no1 [compound 226, 3-(3-((6-((6-fluoropyridin-2-yl)methoxy)pyridin-3-yl)methyl)isoxazol-5-yl)pyridin-2-amine] | 0.1 to 1 (≈ 0.265 to 2.65 µM) | 0.01 to 0.1 (≈ 0.0265 to 0.265 µM) | 0.01 to 0.1 (≈ 0.0265 to 0.265 µM) | 0.01 to 0.1 | > 1 |
| [N-]=[N+]=Nc1cccc(NCc2ccc(Cc3cc(-c4cccnc4N)on3)cc2)c1 [compound 231, 3-(3-(4-(((3-azidophenyl)amino)methyl)benzyl)isoxazol-5-yl)pyridin-2-amine] | 0.01 to 0.1 (≈ 0.0252 to 0.252 µM) | 0.1 to 1 (≈ 0.252 to 2.52 µM) | 0.01 to 0.1 (≈ 0.0252 to 0.252 µM) | 0.01 to 0.1 | 0.1 to 1 |
| Nc1ncccc1-c1cc(Cc2ccc(Oc3cccc(Cl)n3)cc2)no1 [compound 234, 3-(3-(4-((6-chloropyridin-2-yl)oxy)benzyl)isoxazol-5-yl)pyridin-2-amine] | ≤ 0.01 | 0.01 to 0.1 (≈ 0.0264 to 0.264 µM) | ≤ 0.01 | 0.01 to 0.1 | 0.1 to 1 |
| Nc1ncccc1-c1cc(Cc2ccc(Oc3ncccc3F)cc2)no1 [compound 235, 3-(3-(4-((3-fluoropyridin-2-yl)oxy)benzyl)isoxazol-5-yl)pyridin-2-amine] | ≤ 0.01 | 0.01 to 0.1 (≈ 0.0276 to 0.276 µM) | ≤ 0.01 | 0.01 to 0.1 | 0.1 to 1 |
| Nc1ncccc1-c1cc(Cc2ccc(Oc3ncc(Cl)cc3F)cc2)no1 [compound 236, 3-(3-(4-((5-chloro-3-fluoropyridin-2-yl)oxy)benzyl)isoxazol-5-yl)pyridin-2-amine] | 0.1 to 1 (≈ 0.252 to 2.52 µM) | 0.1 to 1 (≈ 0.252 to 2.52 µM) | 0.1 to 1 (≈ 0.252 to 2.52 µM) | 0.1 to 1 | 0.1 to 1 |
| Nc1ncccc1-c1cc(Cc2ccc(Nc3c(F)cccc3F)nc2)no1 [compound 237, 5-((5-(2-aminopyridin-3-yl)isoxazol-3-yl)methyl)-N-(2,6-difluorophenyl)pyridin-2-amine] | 0.01 to 0.1 (≈ 0.0264 to 0.264 µM) | 0.01 to 0.1 (≈ 0.0264 to 0.264 µM) | 0.01 to 0.1 (≈ 0.0264 to 0.264 µM) | 0.1 to 1 | > 1 |
| Nc1ncccc1-c1cc(Cc2ccc(Oc3cc(F)cc(F)n3)cc2)no1 [compound 239, 3-(3-(4-((4,6-difluoropyridin-2-yl)oxy)benzyl)isoxazol-5-yl)pyridin-2-amine] | 0.01 to 0.1 (≈ 0.0263 to 0.263 µM) | 0.1 to 1 (≈ 0.263 to 2.63 µM) | 0.01 to 0.1 (≈ 0.0263 to 0.263 µM) | 0.1 to 1 | 0.1 to 1 |
| Nc1ncccc1-c1cc(Cc2ccc(Oc3nc(Cl)cs3)cc2)no1 [compound 240, 3-(3-(4-((4-chlorothiazol-2-yl)oxy)benzyl)isoxazol-5-yl)pyridin-2-amine] | 0.01 to 0.1 (≈ 0.026 to 0.26 µM) | 0.1 to 1 (≈ 0.26 to 2.6 µM) | 0.01 to 0.1 (≈ 0.026 to 0.26 µM) | 0.1 to 1 | 0.1 to 1 |
| Nc1ncccc1-c1cc(Cc2ccc(Oc3nc(F)c(F)cc3F)cc2)no1 [compound 241, 3-(3-(4-((3,5,6-trifluoropyridin-2-yl)oxy)benzyl)isoxazol-5-yl)pyridin-2-amine] | 0.01 to 0.1 (≈ 0.0251 to 0.251 µM) | 0.1 to 1 (≈ 0.251 to 2.51 µM) | 0.01 to 0.1 (≈ 0.0251 to 0.251 µM) | 0.01 to 0.1 | 0.1 to 1 |
| Nc1ncccc1-c1cc(Cc2ccc(Oc3ncc(F)cc3F)cc2)no1 [compound 242, 3-(3-(4-((3,5-difluoropyridin-2-yl)oxy)benzyl)isoxazol-5-yl)pyridin-2-amine] | ≤ 0.01 | 0.01 to 0.1 (≈ 0.0263 to 0.263 µM) | 0.01 to 0.1 (≈ 0.0263 to 0.263 µM) | 0.01 to 0.1 | 0.1 to 1 |
| Nc1ncccc1-c1cc(Cc2ccc(Oc3ncccn3)cc2)no1 [compound 243, 3-(3-(4-(pyrimidin-2-yloxy)benzyl)isoxazol-5-yl)pyridin-2-amine] | 0.1 to 1 (≈ 0.29 to 2.9 µM) | 0.1 to 1 (≈ 0.29 to 2.9 µM) | 0.1 to 1 (≈ 0.29 to 2.9 µM) | 0.1 to 1 | > 1 |
| Nc1ncccc1-c1cc(Cc2ccc(Nc3cc(F)ccc3F)nc2)no1 [compound 244, 5-((5-(2-aminopyridin-3-yl)isoxazol-3-yl)methyl)-N-(2,5-difluorophenyl)pyridin-2-amine] | 0.1 to 1 (≈ 0.264 to 2.64 µM) | 0.1 to 1 (≈ 0.264 to 2.64 µM) | 0.1 to 1 (≈ 0.264 to 2.64 µM) | 0.1 to 1 | > 1 |
| Nc1ncccc1-c1cc(Cc2ccc(Nc3ccc(F)c(F)c3F)nc2)no1 [compound 245, 5-((5-(2-aminopyridin-3-yl)isoxazol-3-yl)methyl)-N-(2,3,4-trifluorophenyl)pyridin-2-amine] | 0.1 to 1 (≈ 0.252 to 2.52 µM) | 0.1 to 1 (≈ 0.252 to 2.52 µM) | 0.1 to 1 (≈ 0.252 to 2.52 µM) | 0.1 to 1 | > 1 |
| Nc1ncccc1-c1cc(Cc2ccc(Oc3ccc(F)cn3)cc2)no1 [compound 246, 3-(3-(4-((5-fluoropyridin-2-yl)oxy)benzyl)isoxazol-5-yl)pyridin-2-amine] | 0.1 to 1 (≈ 0.276 to 2.76 µM) | 0.1 to 1 (≈ 0.276 to 2.76 µM) | 0.01 to 0.1 (≈ 0.0276 to 0.276 µM) | 0.01 to 0.1 | 0.1 to 1 |
| Nc1ncccc1-c1cc(Cc2cnc(Nc3ccccc3F)c(F)c2)no1 [compound 250, 5-((5-(2-aminopyridin-3-yl)isoxazol-3-yl)methyl)-3-fluoro-N-(2-fluorophenyl)pyridin-2-amine] | 0.1 to 1 (≈ 0.264 to 2.64 µM) | 0.01 to 0.1 (≈ 0.0264 to 0.264 µM) | 0.01 to 0.1 (≈ 0.0264 to 0.264 µM) | 0.01 to 0.1 | 0.1 to 1 |
| Nc1ncccc1-c1cc(Cc2cnc(Nc3c(F)cccc3F)c(F)c2)no1 [compound 253, 5-((5-(2-aminopyridin-3-yl)isoxazol-3-yl)methyl)-N-(2,6-difluorophenyl)-3-fluoropyridin-2-amine] | 0.1 to 1 (≈ 0.252 to 2.52 µM) | 0.1 to 1 (≈ 0.252 to 2.52 µM) | 0.1 to 1 (≈ 0.252 to 2.52 µM) | 0.1 to 1 | > 1 |
| Nc1ncccc1-c1cc(Cc2cnc(OCc3ccccc3)c(F)c2)no1 [compound 257, 3-(3-((6-(benzyloxy)-5-fluoropyridin-3-yl)methyl)isoxazol-5-yl)pyridin-2-amine] | > 1 | 0.01 to 0.1 (≈ 0.0266 to 0.266 µM) | 0.1 to 1 (≈ 0.266 to 2.66 µM) | 0.01 to 0.1 | 0.1 to 1 |
| Nc1ncccc1-c1cc(Cc2ccc(Oc3cccc(F)n3)c(F)c2)no1 [compound 258, 3-(3-(3-fluoro-4-((6-fluoropyridin-2-yl)oxy)benzyl)isoxazol-5-yl)pyridin-2-amine] | 0.1 to 1 (≈ 0.263 to 2.63 µM) | 0.1 to 1 (≈ 0.263 to 2.63 µM) | 0.01 to 0.1 (≈ 0.0263 to 0.263 µM) | 0.01 to 0.1 | 0.1 to 1 |
| Nc1ncccc1-c1cc(Cc2ccc(Cc3cc(F)nc(F)c3)cc2)no1 [compound 261, 3-(3-(4-((2,6-difluoropyridin-4-yl)methyl)benzyl)isoxazol-5-yl)pyridin-2-amine] | 0.1 to 1 (≈ 0.264 to 2.64 µM) | 0.1 to 1 (≈ 0.264 to 2.64 µM) | 0.1 to 1 (≈ 0.264 to 2.64 µM) | 0.1 to 1 | 0.1 to 1 |
